Data as given in patent US12344584B2, “KCNQ potentiators” (Eli Lilly and Company, priority 2019, dated 2025).
Like-named read-outs stand apart in the source and are kept apart here.

System: motor neurons derived from ALS patient iPSC line with pathogenic mutation in TARDBP
Experiment: Optopatch excitability assay in motor neurons derived from ALS patient iPSC line (TARDBP mutation)
Type: cell-based, human
Settings: for EC50: Homo sapiens, iPSC, TARDBP line, blue LED 5.1 mW/cm^2, mean, read-out: EC50, inhibition of excitability (action potential frequency)
Source text: Optopatch Excitability Assay for Example 1 in Motor Neurons Derived From ALS Patient iPSC Lines
Altered excitability of cortical neurons and lower motor neuron is an important factor in the pathophysiology of ALS (See, for example, K. Kanai, et. al., J Neurol Neurosurg Psychiatry, 83, 734-738 (2012); P. Menon, et. al., Eur Neurol., 24, 816-824 (2017)). All-optical electrophysiology (“Optopatch”) was used to evaluate excitability in cultured motor neurons derived from iPSC lines from two ALS patients with different pathogenic mutations.
Cell Culture: The two iPSC lines are derived from one patient with a pathogenic mutation in TARDBP and one patient with a pathogenic repeat expansion mutation in C9orf72, respectively. Motor neurons are generated from these lines by a 2D differentiation method adapted from the dual SMAD inhibition neuronal patterning protocol (See S. M. Chambers, et. al., Nat Biotechnol., 27, 275-280 (2009)) by inclusion of motor neuron morphogens. Differentiation is verified by visual inspection, karyotyping and staining for beta-III-tubulin and the nuclear motor neuron marker ISL1. Neurons are cultured on a monolayer of mouse glia in mTeSR (Stem Cell Technologies), supplemented with 10 ng/mL BDNF. Forty-eight hours prior to imaging, 100 nM trans-retinal was added to the medium.
Transduction with Optopatch vectors: At 15 days in vitro, cultured motor neurons are transduced with a lentiviral vector to drive the co-expression of the actuator CheRiff-mOrange2 and the voltage indicator QuasAr3-Citrine (for details see D. R. Hochbaum, et. al., Nat. Methods, 11, 825-833 (2014)). Forty-eight hours prior to imaging, 100 nM trans-retinal was added to the medium.
Solutions: Recordings are performed in Brainphys™ imaging buffer with 3 mM potassium. The gap junction blocker 2-aminoethoxydiphenyl borate (50 μM) is added to eliminate electrical coupling between cells, and NBQX (10 μM), gabazine (20 μM), and AP5 (25 μM) were used to block synaptic transmission.
Optopatch Recordings: Five days after transduction, Optopatch imaging is performed on a custom, ultra-widefield fluorescence microscope at RT. Motor neurons are illuminated with red laser excitation (200 W/cm^2; 635 nm) to monitor changes in QuasAr fluorescence and blue LED excitation (0-127 mW/cm^2, 470 nm) to depolarize the cell membrane with CheRiff. A custom blue light stimulus protocol is used consisting of: i) 2 sec of red illumination only to monitor spontaneous activity, ii) 5×500 msec steps of increasing blue light intensity and iii) 2×2 sec linearly increasing blue light ramps, each with a different maximum blue intensity. Optopatch data are recorded using a Hamamatsu ORCA-Flash 4.0 sCMOS camera with a 1 kHz frame rate. The field of view size is 4 mm×0.5 mm. Custom control software written in MATLAB is used to control illumination protocols and record all movies. To examine acute effects of Kv7.2/7.3 potentiators, neurons are incubated with test compound for 15 min prior to imaging.
Data Analysis: Image segmentation analysis is performed using temporal Principle Component Analysis and spatial-temporal Independent Component Analysis to isolate individual neurons. A spike-finding algorithm is used to find action potentials, and data are analyzed for compound effects on mean firing rate, adaptation, rheobase and action potential waveform shape by comparing to vehicle controls (for detail, see C. A. Werley, et. al., Curr. Protoc. Pharmacol., 78, 11.20.1-11.20.24. (2017)).
Subjected to the protocol described above, the primary effect of the Example 1 is on the action potential firing rate in response to low intensity blue light illumination.
Fitting a 4-parameter logistic equation to the data may be used to determine the potency (EC50) of the effect of Example 1 on action potential frequency. Results are shown in Table 1 for two separate differentiation efforts each for the lines derived from the patients carrying the TARDBP and C9orf72 mutations.

EC50 (Diff 1): 150 nM | EC50 (Diff 2): 150 nM
Compound: CC(C)(C)[C@H](O)CNC(=O)NCc1ccnc(OCC(F)(F)F)c1 [Example 1, 1-[(2S)-2-hydroxy-3,3-dimethyl-butyl]-3-[[2-(2,2,2-trifluoroethoxy)-4-pyridyl]methyl]urea]
effect on action potential frequency (blue LED illumination intensity 5.1 mW/cm^2, text does not distinguish the two lines): decreased action potential frequency in a concentration-dependent manner | observed effects compared with flupirtine (both patient lines, vs known Kv7.2/7.3 potentiator flupirtine): qualitatively similar but more potent
